# Measured values taken from ChEMBL document CHEMBL2202983, “Structure-anti-leukemic activity relationship study of ortho-dihydroxycoumarins in U-937 cells: key role of the δ-lactone ring in determining differentiation-inducing potency and selective pro-apoptotic action” (Bioorg Med Chem, 2012).
# The source made the active and inactive calls. No cut-off for these calls is given here.
# Tested on: U-937
# Test: Induction of apoptosis in human U937 cells assessed as activation of caspase-3 at 500 uM after 24 hrs by colorimetric assay
# Format: functional, cell-based
# Details: not given
row,Structure (SMILES),Activity
1,COc1cc2ccc(=O)oc2cc1OC [SCOPARONE],inactive
2,Cc1cc(=O)oc2ccc(O)cc12,inactive
3,COc1cc2ccc(=O)oc2cc1O [SCOPOLETIN],inactive
4,"Cc1cc(=O)oc2cc(O)cc(O)c12 [5,7-DIHYDROXY-4-METHYLCOUMARIN]",inactive

# Tested on: U-937
# Test: Cytotoxicity against human U937 cells after 48 hrs by trypan blue assay
# Format: functional
# Details: U-937, 48 h
row,Structure (SMILES),CC50 [µM]
1,O=c1cccco1,> 2000
2,Cc1cc(O)cc(=O)o1,> 2000
3,COc1ccc(CCC(=O)O)cc1OC,> 2000
4,COc1cc(C)oc(=O)c1,> 2000
5,O=C(O)/C=C/c1ccc(O)cc1 [COUMARIC ACID],> 2000
6,COc1cc2ccc(=O)oc2cc1OC [SCOPARONE],1290
7,Cc1cc(=O)oc2ccc(O)cc12,> 2000
8,COc1cc2ccc(=O)oc2cc1O [SCOPOLETIN],> 2000
9,"Cc1cc(=O)oc2cc(O)cc(O)c12 [5,7-DIHYDROXY-4-METHYLCOUMARIN]",> 2000
10,Cc1cc(C)oc(=O)c1,> 2000
11,COc1ccc(/C=C/C(=O)O)cc1OC,> 2000

# Tested on: U-937
# Test: Antiproliferative activity against human U937 cells assessed as incorporation of [3H]-methyl-thymidine after 12 hrs by scintillation counting
# Format: functional, cell-based
# Details: not given
row,Structure (SMILES),IC50 [µM]
1,O=c1cccco1,> 2000
2,Cc1cc(O)cc(=O)o1,> 2000
3,COc1ccc(CCC(=O)O)cc1OC,> 2000
4,COc1cc(C)oc(=O)c1,> 2000
5,O=C(O)/C=C/c1ccc(O)cc1 [COUMARIC ACID],> 2000
6,COc1cc2ccc(=O)oc2cc1OC [SCOPARONE],590
7,COc1cc2ccc(=O)oc2cc1O [SCOPOLETIN],976
8,"Cc1cc(=O)oc2cc(O)cc(O)c12 [5,7-DIHYDROXY-4-METHYLCOUMARIN]",> 2000
9,Cc1cc(C)oc(=O)c1,> 2000
10,COc1ccc(/C=C/C(=O)O)cc1OC,> 2000

# Tested on: PBMC
# Test: Cytotoxicity against human PBMC at 500 uM after 48 hrs by trypan blue assay
# Format: cell-based
# Details: not given
row,Structure (SMILES),Activity
1,COc1ccc(CCC(=O)O)cc1OC,Non-toxic

# Tested on: Jurkat
# Test: Induction of apoptosis in human Jurkat cells assessed as activation of caspase-3-mediated PARP cleavage at 500 uM after 24 hrs by colorimetric assay
# Format: functional, cell-based
# Details: not given
row,Structure (SMILES),Activity
1,COc1ccc(CCC(=O)O)cc1OC,inactive

# Tested on: U-937
# Test: Pro-oxidant activity in human U937 cells assessed as DCF-DA oxidation at 10 to 250 uM after 48 hrs by fluorescence assay
# Format: functional, cell-based
# Details: not given
row,Structure (SMILES),Activity
1,COc1ccc(CCC(=O)O)cc1OC,inactive

# Tested on: not listed separately
# Test: Pro-oxidant activity in 0.1 M potassium phosphate buffer at pH 7.4 assessed as increase of oxidation potential by cyclic voltammetry analysis
# Format: physicochemical
# Details: not given
row,Structure (SMILES),Activity
1,O=c1cccco1,Not Active
2,Cc1cc(O)cc(=O)o1,Not Active
3,COc1ccc(CCC(=O)O)cc1OC,Active
4,COc1cc(C)oc(=O)c1,Not Active
5,COc1cc2ccc(=O)oc2cc1OC [SCOPARONE],Not Active
6,Cc1cc(C)oc(=O)c1,Not Active
7,COc1ccc(/C=C/C(=O)O)cc1OC,Active

# Tested on: U-937
# Test: Induction of cell differentiation in human U937 cells assessed as increase of rhC5a-induced response at 500 uM after 72 hrs by FACS flow cytometer analysis
# Format: functional, cell-based
# Details: not given
row,Structure (SMILES),Activity
1,COc1ccc(CCC(=O)O)cc1OC,inactive

# Tested on: U-937
# Test: Induction of cell differentiation in human U937 cells assessed as increase of CD88 expression at 500 uM after 72 hrs by FACS flow cytometer analysis
# Format: functional, cell-based
# Details: not given
row,Structure (SMILES),Activity
1,COc1ccc(CCC(=O)O)cc1OC,inactive

# Tested on: U-937
# Test: Induction of cell differentiation in human U937 cells assessed as increase of CD11b and CD14 expression at 500 uM after 72 hrs by FACS flow cytometer analysis
# Format: functional, cell-based
# Details: not given
row,Structure (SMILES),Activity
1,O=c1cccco1,Active
2,Cc1cc(O)cc(=O)o1,Active
3,COc1ccc(CCC(=O)O)cc1OC,inactive
4,COc1cc(C)oc(=O)c1,Active
5,O=C(O)/C=C/c1ccc(O)cc1 [COUMARIC ACID],inactive
6,Cc1cc(=O)oc2ccc(O)cc12,Active
7,COc1cc2ccc(=O)oc2cc1O [SCOPOLETIN],inactive
8,"Cc1cc(=O)oc2cc(O)cc(O)c12 [5,7-DIHYDROXY-4-METHYLCOUMARIN]",Active
9,Cc1cc(C)oc(=O)c1,Active
